From patent publication US6033823A, “Mutated penicillin G acylase genes” (priority 1994, dated 2000) come the findings set out here.

The target of this experiment is T1, Alcaligenes faecalis Penicillin G acylase mutant B:L56K (Alcaligenes faecalis, UniProt O34142, L321K).
T1 construct: alpha 202 aa, beta 551 aa; recombinant, E. coli host
T1 sequence (O34142 27-228): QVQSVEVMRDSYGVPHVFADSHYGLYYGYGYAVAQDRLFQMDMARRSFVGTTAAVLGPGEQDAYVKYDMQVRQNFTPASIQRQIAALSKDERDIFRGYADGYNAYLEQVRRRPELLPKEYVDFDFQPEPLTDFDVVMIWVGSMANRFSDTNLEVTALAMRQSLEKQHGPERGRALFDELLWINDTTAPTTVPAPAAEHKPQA
T1 sequence (O34142 266-816 L321K): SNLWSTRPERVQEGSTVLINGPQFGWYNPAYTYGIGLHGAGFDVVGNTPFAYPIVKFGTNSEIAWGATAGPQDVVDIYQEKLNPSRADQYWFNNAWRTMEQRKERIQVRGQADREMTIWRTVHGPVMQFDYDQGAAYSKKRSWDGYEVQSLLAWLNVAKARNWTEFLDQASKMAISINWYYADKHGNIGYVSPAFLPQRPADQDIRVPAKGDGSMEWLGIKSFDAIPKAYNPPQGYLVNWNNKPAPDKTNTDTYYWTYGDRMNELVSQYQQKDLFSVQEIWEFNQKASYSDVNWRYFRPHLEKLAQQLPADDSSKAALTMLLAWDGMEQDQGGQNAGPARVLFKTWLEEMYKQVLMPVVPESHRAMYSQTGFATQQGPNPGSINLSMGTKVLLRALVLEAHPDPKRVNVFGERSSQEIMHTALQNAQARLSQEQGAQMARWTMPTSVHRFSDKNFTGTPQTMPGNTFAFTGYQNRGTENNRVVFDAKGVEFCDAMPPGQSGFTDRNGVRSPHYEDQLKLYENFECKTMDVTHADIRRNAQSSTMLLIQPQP
Nature of the experiment: Deacylation kinetics and phenylacetic acid product inhibition, mutant B:L56K. It counts as biochemical. Particulars: from progress curves of NIPAB deacylation, 25° C., 0.1 M NaH2PO4.H2O buffer pH 7.5, read-out: Ki Phenylacetic acid (inhibition constant, dissociation constant). On the procedure: In order to determine enzymatic activity the acylases were incubated with substrate at room temperature in buffered solution. In case β-lactamase impurity was expected to be present in the enzyme preparations, 1.0 mM -lactamase inhibitor 6-bromo-penicillanic acid was added to the assay. The reactions were stopped by adding an excess PMSF. For some mutants which were less sensitive to PMSF inhibition, the reactions were stopped by adding 0.5 M HCl or 0.5 M acetic acid until the pH was between 3 and 4. When reactions were subsequently analysed by HPLC, the reactions were stopped by dilution with the correponding elution solvent (see table 1). […]
The composition of the reaction mixtures was determined by high-performanceliquid chromatography (HPLC)(table 1). Concentrations were determined by using standards of known concentration.
In a continuous assay Penicillin G acylase was assayed spectro-fotometrically with the chromogenic substrate NIPAB [6-nitro-3-phenylacetamido-benzoic acid]. The liberation of 3-amino-6-nitrobenzoic acid was monitored by measuring the extinction at 405 nm in a Kontron 610 kinetic spectrofotometer. […]
Initial rate measurements were performed with excess substrate over the enzyme. Catalytic parameters were derived from least-squares fitting of the measured initial rates plotted for various substrate concentrations according to the Michaelis-Menten equation. […]

Broadly, the Ki is a measure of affinity in units of concentration, obtained from inhibition or displacement. Consider `O=C(O)Cc1ccccc1` [phenylacetic acid], for which the Ki was found to be 115 µM.
